# According to patent publication US20040141944A1, “Inhibition of xenoreactive antibodies” (priority 1998, published 2004):
# Read-outs that look alike come from different tables or passages of the source.
# Columns and labels:
# [1] = system: anti-Gal antibodies in baboon serum; assay: competition ELISA, inhibition of xenoreactive antibody activity (IC50); format: binding; settings: for IC50 (FIG. 24): mass per volume of polymer, new pipette tip for each addition
# Experimental: Principle of the assay: A competition ELISA was set up in such a way that Gal-molecules linked to human serum albumin and immobilized onto a microtiter plate and Gal-molecules linked to PEG compete for anti-Gal antibodies in baboon serum. The antibodies binding to the Gal-HSA were visualized using secondary antibodies to these antibodies with appropriate color development agents. The color in the case in which no Gal-PEG was added was defined as 100%. The IC50 was defined, for FIG. 3, as the concentration of Gal-PEG needed to inhibit 50% of the color development when trying to detect antibodies immobilized onto the Gal-HSA plate. For FIG. 24, the IC50 is defined in terms of mass per volume, e.g. mg/mL, of polymer.
# Briefly, a 96 well microtiter was coated with 100 ul/well of a 30 ug/mL solution of αGal(1,3)Gal β 1-4 GlcNAc-human serum albumin (Gal-HSA) and incubated for 90 minutes at room temperature. After incubation with Gal-HSA, the plate was blocked with 1% HSA in PBS for 60 minutes.
# While the microtiter plate was coated and blocked, samples were prepared as follows: Fifteen different dilution solutions were prepared for 1 plate. The first dilution solution was 1% HSA in PBS. […] were obtained by preparing a 2.5 mL stock solution of 10 mM αGal(1,3)Gal β 1-4 GlcNAc in 1% HSA/PBS and then serially diluting 1/10 three times. Dilution solutions 6-15 were obtained by preparing a 2.5 mL stock solution of the first concentration of modified PEG and then serially diluting 1/10 nine times in 1% HSA in PBS.
# The plate was incubated for 90 minutes at 4° C. The plate was washed five times with PBS containing 0.5% Tween 20 and blot dried.
# When assaying for xenoreactive IgM, 100 ul/well of Goat anti-human IgM-biotin antibody, diluted 1/4000 in 1% HSA/PBS, was added.
# When assaying for xenoreactive IgG, 100 ul/well of Goat anti-human IgG-biotin antibody, diluted 1/4000 in 1% HSA/PBS, was added.
# The biotinylated secondary antibody was incubated for one hour at 4° C. and afterwards the plate was washed five times with PBS containing 0.5% Tween 20 and blot dried. Hereafter, 100 ul/well streptavidin-alkaline phosphatase conjugate was added at a dilution of 1/4000 in 1% HSA/PBS and incubated for 30 minutes at room temperature. The microtiter plate was washed five times with PBS containing 0.5% Tween 20 and blot dried. 150 ul developer per well was added and the plate incubated for 30 minutes at room temperature. The color development was stopped by addition of 40 ul/well of 3 M NaOH. The plate was read in a plate reader at wavelength of 405 nm.
# The IC50 data was calculated from the percent inhibition from the dilution of baboon control in 1% HSA/PBS which gave this highest point within the linear range.
# % Inhibition=(([OD of BC in HSA]−[OD of BC in αGal(1,3)Gal β 1-4 GlcNAc or PEG-(αGal(1,3)Gal β 1-4 GlcNAc)x])/OD of BC in HSA)*100
# total IgM and total IgG = assay: 810S-treated baboons: total IgM and total IgG by ELISA; format: in vivo, baboon; settings: all 3 animals, throughout the experiment
# Experimental: FIG. 28 is a graph of baboon 46-98 antibody response to 810S. Baboon 46-98 was treated with 810S (50 mg/kg) every 3 days for a total of 6 treatments. Serum was analyzed for IgM and IgG antibodies directed against the α-gal epitope (XIgM or XIgG), as well as for total IgM (TotIgM) or total IgG (TotIgG) by ELISA. The percent antibody remaining was calculated using baseline values as 100%.
# (§1) A total of 6 baboons were used. Three baboons (designated 51-98, 48-98 and 47-98) underwent immunoapheresis (IP) using α-gal columns, with plasma from 3 blood volumes being passed over the columns every 3 days for a total of 6 treatments. Three other baboons (designated 46-98, 52-98, 50-98) received IV infusions of 810S at 50 mg/kg every 3 days for a total of 6 treatments. No immunosuppression or exposure to pig organs was included in the protocol.
# [2] = system: α-gal antibody secreting cells (ASCs); assay: 810S vs immunoapheresis: peripheral α-gal antibody secreting cells (ELISPOT); format: in vivo, baboon
# Experimental: (§2) FIG. 34 compares the IgG response between IP and TPC (810) treated baboons. Baboons were either treated with 810S (50 mg/kg) every 3 days for a total of 6 treatments, or underwent a total of 6 immunoapheresis treatments using α-gal columns every 3 days. Peripheral blood mononuclear cells were collected and analyzed for the number of cells secreting IgG antibodies directed against α-gal using an ELISPOT analysis. The fold-change in antibody secreting cells (ASCs) was calculated by normalizing to baseline values. Values are represented as the mean from 3 baboons per group.
# as §2, with “35” for “34”, “IgM” for “IgG”
# as §1
# (§3) In both groups, serum samples and blood were collected to measure α-gal antibody levels and ASCs during the treatment period and during a follow-up period out to approximately 150-180 days.
# [3] = presence of 810S in baboon serum at day 30 (competition with human XNA binding to GAL-HSA); format: in vivo; settings: day 30 serum
# Excerpt: To investigate whether 810S was still in baboon serum by day 30, serum was mixed with human serum and analyzed by ELISA for competition with human XNA binding to GAL-HSA.
# [4] = system: IgM and IgG antibodies directed against the α-gal epitope (XNA); assay: 810S vs immunoapheresis: circulating α-gal antibodies (serum ELISA); format: in vivo, baboon
# Experimental: (§4) FIG. 26 is a graph of IgM XNA Levels: 810S vs IP-treated baboons. Baboons were either treated with 810S (50 mg/kg) every 3 days for a total of 6 treatments, or underwent a total of 6 immunoapheresis treatments using α-gal columns every 3 days. Serum from each baboon was analyzed by ELISA for IgM antibodies directed against the α-gal epitope. The percent IgM XNAs remaining were calculated using baseline values from each animal as 100%.
# as §4, with “FIG. 27” for “FIG. 26”, “of IgG” for “of IgM”, “for IgG” for “for IgM”, “the a -gal” for “the α-gal”
# as §1, §3
# [5] = 50 mg/kg IV every 3 days, after the final (6th) treatment
molecule,measurement,setting,value
"(αGal(1,3)Gal β 1-4 GlcNAc)8, PEG [Example 810E]",IC50 (FIG. 24),[1],100 µg/mL
"(αGal(1,3)Gal β 1-4 GlcNAc)8-PEG [Example 410L]",IC50,[1],500 µg/mL
same,times more effective per coupled sugar than the free sugar,[1]; from IC50 of 410L versus free sugar,100 times
"(αGal(1,3)Gal β 1-4 GlcNAc)8-PEG [Example 810S]",total IgM and IgG levels,total IgM and total IgG,remained relatively constant
same,"IgM and IgG ASC levels, % of initial levels",[2]; 1 week after day 30,about 62%
same,"IgM and IgG ASCs, % of starting levels",[2]; after the sixth treatment,3-6%
same,"IgM and IgG ASCs, % initial levels",[2]; by the fourth treatment,about 10%
same,"IgM and IgG ASC levels, % of initial levels",[2]; by the second treatment with 810S,20-40%
same,"IgM and IgG ASC levels, % of initial levels","[2]; day 30, 2 weeks after 810S treatment was terminated",about 38%
same,810S still in baboon serum,[3],not still in circulation
same,IC50,"[1]; approximate, 810 S and its diafiltration fractions (Example 30)",0.005 µg/mL
same,IC50 (FIG. 24),[1],0.5 µg/mL
same,"IgG XNA levels, % of baseline values",[4]; [5],1-9%
same,"IgM XNA levels, % of baseline values",[4]; [5],1-3%
same,"circulating IgG and IgM XNA levels, % of initial levels","[4]; 50 mg/kg IV, after the 1st treatment, all 3 baboons",1-13%
same,"IgG XNA levels, % of baseline values",[4]; by day 30,20-33%
same,"IgM XNA levels, % of baseline values",[4]; by day 30,8-18%
same,"IgG XNA levels, % of baseline values","[4]; day 184, 2 810S-treated baboons",30-38%
same,"IgM XNA levels, % of baseline levels","[4]; day 184, 3rd baboon",60%
same,IgG XNA levels,"[4]; day 184, one (3rd) baboon",returned to baseline
same,"IgM XNA levels, % of baseline values","[4]; day 184, the other 2 baboons",24-39%
"CC(=O)N[C@H]1C(O)O[C@H](CO)[C@@H](O[C@@H]2O[C@H](CO)[C@H](O)[C@H](O[C@H]3O[C@H](CO)[C@H](O)[C@H](O)[C@H]3O)[C@H]2O)[C@@H]1O (stereo partly drawn) [free sugar, αGal(1,3)Gal β 1-4 GlcNAc, reference compound]",IC50,[1],50000 µg/mL
